# Patent US20250346597A1, “CONDENSED HETEROCYCLIC COMPOUNDS AS INHIBITOR OF DIACYLGLYCEROL KINASES” (BEONE MEDICINES I GMBH, priority 2023, published 2025)
# Assays:
# DGKα = DGKα (Homo sapiens (Human), UniProt P23743); assay: Biochemical DGK IC50 assay (ADP-Glo, lipid micelle substrate), DGKα; conditions: full length DGKα […], ATP 140 μM, DAG 80 μM; further: full length DGKα 7.5 nM
# Method in brief: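 Full-length human DGKα assayed by ADP-Glo with DAG/PS lipid micelle substrate at room temperature in 50 mM HEPES, 10 mM MgCl2, 0.01% BSA, 0.1 mM Na3VO4, 0.005% Tween-20, 0.01 mM CaCl2.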
# DGKζ = DGKζ (Homo sapiens (Human), UniProt Q13574); assay: Biochemical DGK IC50 assay (ADP-Glo, lipid micelle substrate), DGKζ; conditions: full length DGKζ 0.5 nM, ATP 140 μM, DAG 80 μM
# Method in brief: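 Full-length human His-TEV-tagged DGKζ, expressed in Sf9 cells and purified, was run at room temperature on DAG/PS lipid micelles in 50 mM HEPES, 10 mM MgCl2, 0.01 mM CaCl2 buffer. After 1 h reaction, ADP formed was detected by ADP-Glo luminescence. IC50s came from inhibition across increasing compound concentrations.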
# Chain of DGKζ (Q13574 other isoform, or with tags, fused parts or gaps): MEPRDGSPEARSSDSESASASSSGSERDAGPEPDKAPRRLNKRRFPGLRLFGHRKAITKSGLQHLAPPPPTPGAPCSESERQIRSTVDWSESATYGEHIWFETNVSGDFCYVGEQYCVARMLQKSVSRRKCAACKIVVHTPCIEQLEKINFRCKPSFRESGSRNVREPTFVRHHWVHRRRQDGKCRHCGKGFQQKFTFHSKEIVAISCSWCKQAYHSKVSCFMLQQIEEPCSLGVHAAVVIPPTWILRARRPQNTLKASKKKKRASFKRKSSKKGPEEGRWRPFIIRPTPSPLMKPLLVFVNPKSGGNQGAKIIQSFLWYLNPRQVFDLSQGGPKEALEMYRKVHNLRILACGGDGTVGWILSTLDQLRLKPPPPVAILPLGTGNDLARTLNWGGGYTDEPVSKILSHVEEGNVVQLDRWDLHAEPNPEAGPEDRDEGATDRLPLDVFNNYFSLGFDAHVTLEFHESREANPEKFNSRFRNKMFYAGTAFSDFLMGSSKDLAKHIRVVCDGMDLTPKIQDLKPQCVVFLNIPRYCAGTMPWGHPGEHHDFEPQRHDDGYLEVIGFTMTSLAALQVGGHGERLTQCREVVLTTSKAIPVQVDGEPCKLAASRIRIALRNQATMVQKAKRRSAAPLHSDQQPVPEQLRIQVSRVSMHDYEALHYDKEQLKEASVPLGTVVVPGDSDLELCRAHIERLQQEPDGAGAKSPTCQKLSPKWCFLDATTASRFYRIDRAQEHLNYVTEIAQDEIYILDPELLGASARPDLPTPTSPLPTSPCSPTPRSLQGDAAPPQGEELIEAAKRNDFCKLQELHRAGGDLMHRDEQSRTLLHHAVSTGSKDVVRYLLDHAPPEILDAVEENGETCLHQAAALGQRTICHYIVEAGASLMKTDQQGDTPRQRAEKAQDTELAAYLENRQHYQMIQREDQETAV
# Chain of DGKα (P23743 whole entry): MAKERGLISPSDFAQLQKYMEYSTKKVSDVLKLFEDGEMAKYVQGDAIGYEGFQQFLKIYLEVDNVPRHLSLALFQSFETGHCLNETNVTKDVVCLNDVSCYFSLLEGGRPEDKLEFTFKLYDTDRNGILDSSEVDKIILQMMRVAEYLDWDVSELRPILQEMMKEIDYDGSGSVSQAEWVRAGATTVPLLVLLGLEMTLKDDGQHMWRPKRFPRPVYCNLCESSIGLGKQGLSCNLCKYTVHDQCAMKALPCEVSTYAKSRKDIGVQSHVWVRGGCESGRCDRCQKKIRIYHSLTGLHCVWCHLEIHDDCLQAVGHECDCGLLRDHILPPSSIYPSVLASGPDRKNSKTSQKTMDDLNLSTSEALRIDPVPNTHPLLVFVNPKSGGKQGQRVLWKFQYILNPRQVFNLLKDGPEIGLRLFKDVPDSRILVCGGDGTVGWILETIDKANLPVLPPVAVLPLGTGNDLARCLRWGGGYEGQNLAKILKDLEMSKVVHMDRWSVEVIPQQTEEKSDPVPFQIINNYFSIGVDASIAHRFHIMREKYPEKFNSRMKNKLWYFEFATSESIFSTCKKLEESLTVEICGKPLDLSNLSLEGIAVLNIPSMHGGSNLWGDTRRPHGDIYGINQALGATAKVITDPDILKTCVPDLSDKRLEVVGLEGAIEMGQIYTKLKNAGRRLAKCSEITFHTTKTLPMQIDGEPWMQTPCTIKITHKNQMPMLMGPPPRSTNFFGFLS
SMILES,IC50 (DGKα),IC50 (DGKζ)
"CC[C@H]1CN(C(C)c2ccc(OC3CC3)nc2)[C@H](CC)CN1c1cc(=O)n(C)c2cn(CC#N)nc12 (stereo partly drawn) [Compound A37, 2-(7-((2S,5R)-4-(1-(6-cyclopropoxypyridin-3-yl)ethyl)-2,5-diethylpiperazin-1-yl)-4-methyl-5-oxo-4,5-dihydro-2H-pyrazolo[4,3-b]pyridin-2-yl)acetonitrile]",541 nM,202 nM
"CC[C@H]1CN(C(C)c2ccc(OC)nc2)[C@H](CC)CN1c1cc(=O)n(C)c2cn(CC#N)nc12 (stereo partly drawn) [Compound A41, 2-(7-((2S,5R)-2,5-diethyl-4-(1-(6-methoxypyridin-3-yl)ethyl)piperazin-1-yl)-4-methyl-5-oxo-4,5-dihydro-2H-pyrazolo[4,3-b]pyridin-2-yl)acetonitrile]",347 nM,151 nM
"CC[C@H]1CN(C(C)c2ccc(C(F)(F)F)c(C)n2)[C@H](CC)CN1c1cc(=O)n(C)c2cn(CC#N)nc12 (stereo partly drawn) [Compound A50, 2-(7-((2S,5R)-2,5-diethyl-4-(1-(6-methyl-5-(trifluoromethyl)pyridin-2-yl)ethyl)piperazin-1-yl)-4-methyl-5-oxo-4,5-dihydro-2H-pyrazolo[4,3-b]pyridin-2-yl)acetonitrile]",703 nM,83 nM
"CC[C@H]1CN(C(C)c2ccc(C3CC3)cn2)[C@H](CC)CN1c1cc(=O)n(C)c2cn(CC#N)nc12 (stereo partly drawn) [Compound A52, 2-(7-((2S,5R)-4-(1-(5-cyclopropylpyridin-2-yl)ethyl)-2,5-diethylpiperazin-1-yl)-4-methyl-5-oxo-4,5-dihydro-2H-pyrazolo[4,3-b]pyridin-2-yl)acetonitrile]",118 nM,99 nM
"CC[C@H]1CN(C(C)c2ncc(C)cc2C)[C@H](CC)CN1c1cc(=O)n(C)c2cn(CC#N)nc12 (stereo partly drawn) [Compound A53, 2-(7-((2S,5R)-4-(1-(3,5-dimethylpyridin-2-yl)ethyl)-2,5-diethylpiperazin-1-yl)-4-methyl-5-oxo-4,5-dihydro-2H-pyrazolo[4,3-b]pyridin-2-yl)acetonitrile]",4490 nM,331 nM
"CC[C@H]1CN(C(C)c2ccc(OC)c(C)n2)[C@H](CC)CN1c1cc(=O)n(C)c2cn(CC#N)nc12 (stereo partly drawn) [Compound A55, 2-(7-((2S,5R)-2,5-diethyl-4-(1-(5-methoxy-6-methylpyridin-2-yl)ethyl)piperazin-1-yl)-4-methyl-5-oxo-4,5-dihydro-2H-pyrazolo[4,3-b]pyridin-2-yl)acetonitrile]",2340 nM,653 nM
"CC[C@H]1CN(C(C)c2ccc(C)c(COC)n2)[C@H](CC)CN1c1cc(=O)n(C)c2cn(CC#N)nc12 (stereo partly drawn) [Compound A56, 2-(7-((2S,5R)-2,5-diethyl-4-(1-(6-(methoxymethyl)-5-methylpyridin-2-yl)ethyl)piperazin-1-yl)-4-methyl-5-oxo-4,5-dihydro-2H-pyrazolo[4,3-b]pyridin-2-yl)acetonitrile]",2580 nM,271 nM
"CC[C@H]1CN(C(C)c2ccc(C3CC3)c(C)n2)[C@H](CC)CN1c1cc(=O)n(C)c2cn(CC#N)nc12 (stereo partly drawn) [Compound A58, 2-(7-((2S,5R)-4-(1-(5-cyclopropyl-6-methylpyridin-2-yl)ethyl)-2,5-diethylpiperazin-1-yl)-4-methyl-5-oxo-4,5-dihydro-2H-pyrazolo[4,3-b]pyridin-2-yl)acetonitrile]",487 nM,94 nM
"CC[C@H]1CN(C(C)c2ccc(OC)cn2)[C@H](CC)CN1c1cc(=O)n(C)c2cn(CC#N)nc12 (stereo partly drawn) [Compound A59, 2-(7-((2S,5R)-2,5-diethyl-4-(1-(5-methoxypyridin-2-yl)ethyl)piperazin-1-yl)-4methyl-5-oxo-4,5-dihydro-2H-pyrazolo[4,3-b]pyridin-2-yl)acetonitrile]",137 nM,536 nM
"CC[C@H]1CN(C(C)c2ncc(OC)cc2C)[C@H](CC)CN1c1cc(=O)n(C)c2cn(CC#N)nc12 (stereo partly drawn) [Compound A60, 2-(7-((2S,5R)-2,5-diethyl-4-(1-(5-methoxy-3-methylpyridin-2-yl)ethyl)piperazin-1-yl)-4-methyl-5-oxo-4,5-dihydro-2H-pyrazolo[4,3-b]pyridin-2-yl)acetonitrile]",38000 nM,643 nM
"CC[C@H]1CN(C(C)c2ccc(COC)cn2)[C@H](CC)CN1c1cc(=O)n(C)c2cn(CC#N)nc12 (stereo partly drawn) [Compound A61, 2-(7-((2S,5R)-2,5-diethyl-4-(1-(5-(methoxymethyl)pyridin-2-yl)ethyl)piperazin-1-yl)-4-methyl-5-oxo-4,5-dihydro-2H-pyrazolo[4,3-b]pyridin-2-yl)acetonitrile]",143 nM,298 nM
"CC[C@H]1CN(C(C)c2ccc(C3CC3)c(F)n2)[C@H](CC)CN1c1cc(=O)n(C)c2cn(CC#N)nc12 (stereo partly drawn) [Compound A62, 2-(7-((2S,5R)-4-(1-(5-cyclopropyl-6-fluoropyridin-2-yl)ethyl)-2,5-diethylpiperazin-1-yl)-4-methyl-5-oxo-4,5-dihydro-2H-pyrazolo[4,3-b]pyridin-2-yl)acetonitrile]",21 nM,154 nM
"CC[C@H]1CN(C(C)c2cc3c(cc2F)OC(C)(C)CO3)[C@H](CC)CN1c1cc(=O)n(C)c2cn(CC#N)nc12 (stereo partly drawn) [Compound A64, 2-(7-((2S,5R)-2,5-diethyl-4-(1-(7-fluoro-2,2-dimethyl-2,3-dihydrobenzo[b][1,4]dioxin-6-yl)ethyl)piperazin-1-yl)-4-methyl-5-oxo-4,5-dihydro-2H-pyrazolo[4,3-b]pyridin-2-yl)acetonitrile]",1040 nM,7.8 nM
"CC[C@H]1CN(C(C)c2ccc3c(c2)CCC3(C)C)[C@H](CC)CN1c1cc(=O)n(C)c2cn(CC#N)nc12 (stereo partly drawn) [Compound A66, 2-(7-((2S,5R)-4-(1-(1,1-dimethyl-2,3-dihydro-1H-inden-5-yl)ethyl)-2,5-diethylpiperazin-1-yl)-4-methyl-5-oxo-4,5-dihydro-2H-pyrazolo[4,3-b]pyridin-2-yl)acetonitrile]",2250 nM,96 nM
"CC[C@H]1CN(C(C)c2ccc3c(n2)CCC3)[C@H](CC)CN1c1cc(=O)n(C)c2cn(CC#N)nc12 (stereo partly drawn) [Compound A72, 2-(7-((2S,5R)-4-(1-(6,7-dihydro-5H-cyclopenta[b]pyridin-2-yl)ethyl)-2,5-diethylpiperazin-1-yl)-4-methyl-5-oxo-4,5-dihydro-2H-pyrazolo[4,3-b]pyridin-2-yl)acetonitrile]",27 nM,33 nM

# Continued by falling IC50 (DGKα), values first:
IC50 (DGKα),IC50 (DGKζ),SMILES
14300 nM,51 nM,"CC[C@H]1CN(C(C)c2ncc(C3CC3)cc2C)[C@H](CC)CN1c1cc(=O)n(C)c2cn(CC#N)nc12 (stereo partly drawn) [Compound A57, 2-(7-((2S,5R)-4-(1-(5-cyclopropyl-3-methylpyridin-2-yl)ethyl)-2,5-diethylpiperazin-1-yl)-4-methyl-5-oxo-4,5-dihydro-2H-pyrazolo[4,3-b]pyridin-2-yl)acetonitrile]"
12400 nM,31 nM,"CC(c1ccc2c(c1)OC(C)(C)O2)N1C[C@H](C)N(c2cc(=O)n(C)c3cn(CC#N)nc23)C[C@H]1C (stereo partly drawn) [Compound A70, 2-(7-((2S,5R)-4-(1-(2,2-dimethylbenzo[d][1,3]dioxol-5-yl)ethyl)-2,5-dimethylpiperazin-1-yl)-4-methyl-5-oxo-4,5-dihydro-2H-pyrazolo[4,3-b]pyridin-2-yl)acetonitrile]"
4730 nM,20 nM,"CC(c1ccc2c(c1F)OC(C)(C)O2)N1C[C@H](C)N(c2cc(=O)n(C)c3cn(CC#N)nc23)C[C@H]1C (stereo partly drawn) [Compound A69, 2-(7-((2S,5R)-4-(1-(4-fluoro-2,2-dimethylbenzo[d][1,3]dioxol-5-yl)ethyl)-2,5-dimethylpiperazin-1-yl)-4-methyl-5-oxo-4,5-dihydro-2H-pyrazolo[4,3-b]pyridin-2-yl)acetonitrile]"
1830 nM,4 nM,"CC[C@H]1CN(C(C)c2ccc3c(c2F)OC(C)(C)O3)[C@H](CC)CN1c1cc(=O)n(C)c2cn(CC#N)nc12 (stereo partly drawn) [Compound A71, 2-(7-((2S,5R)-2,5-diethyl-4-(1-(4-fluoro-2,2-dimethylbenzo[d][1,3]dioxol-5-yl)ethyl)piperazin-1-yl)-4-methyl-5-oxo-4,5-dihydro-2H-pyrazolo[4,3-b]pyridin-2-yl)acetonitrile]"
295 nM,66 nM,"CC[C@H]1CN(C(C)c2ccc3c(c2)CCC3)[C@H](CC)CN1c1cc(=O)n(C)c2cn(CC#N)nc12 (stereo partly drawn) [Compound A65, 2-(7-((2S,5R)-4-(1-(2,3-dihydro-1H-inden-5-yl)ethyl)-2,5-diethylpiperazin-1-yl)-4-methyl-5-oxo-4,5-dihydro-2H-pyrazolo[4,3-b]pyridin-2-yl)acetonitrile]"
245 nM,71 nM,"CC[C@H]1CN(C(C)c2ccc3c(c2)CCO3)[C@H](CC)CN1c1cc(=O)n(C)c2cn(CC#N)nc12 (stereo partly drawn) [Compound A67, 2-(7-((2S,5R)-4-(1-(2,3-dihydrobenzofuran-5-yl)ethyl)-2,5-diethylpiperazin-1-yl)-4-methyl-5-oxo-4,5-dihydro-2H-pyrazolo[4,3-b]pyridin-2-yl)acetonitrile]"
167 nM,21 nM,"CC[C@H]1CN(C(C)c2cc(F)c(C3CC3)cn2)[C@H](CC)CN1c1cc(=O)n(C)c2cn(CC#N)nc12 (stereo partly drawn) [Compound A63, 2-(7-((2S,5R)-4-(1-(5-cyclopropyl-4-fluoropyridin-2-yl)ethyl)-2,5-diethylpiperazin-1-yl)-4-methyl-5-oxo-4,5-dihydro-2H-pyrazolo[4,3-b]pyridin-2-yl)acetonitrile]"
91 nM,126 nM,"CC[C@H]1CN(C(C)c2ccc3c(n2)CCO3)[C@H](CC)CN1c1cc(=O)n(C)c2cn(CC#N)nc12 (stereo partly drawn) [Compound A73, 2-(7-((2S,5R)-4-(1-(2,3-dihydrofuro[3,2-b]pyridin-5-yl)ethyl)-2,5-diethylpiperazin-1-yl)-4-methyl-5-oxo-4,5-dihydro-2H-pyrazolo[4,3-b]pyridin-2-yl)acetonitrile]"
